Source: US20220386613A1, “WEED CONTROL METHOD AND MIXED AGROCHEMICAL COMPOSITION FOR SOIL TREATMENT” (KUMIAI CHEMICAL INDUSTRY CO., LTD., priority 2019, published 2022)

Key:
Type in all cases: in vivo
[1] = test system: barnyard grass (Echinochloa crus-galli); assay: Herbicidal effect evaluation test on weeds by soil treatment (barnyard grass); conditions: Day 18 after treatment (4.2 L)
Protocol: (§1) In a greenhouse having an average temperature of 25° C. (highest: 30° C., lowest: 25° C.), field soil (sandy loam) was filled in a plastic pot of 11 cm in length, width and depth, and twenty seeds of each of barnyard grass (Echinochloa crus-galli) and redroot amaranth (Amaranthus retroflexus) were sowed and covered with the same soil at a thickness of 1 cm. […] On the day of this chemical treatment, a total of 2-mm rainfall was artificially applied in 30 minutes using an artificial rain maker. Thereafter, barnyard grass and redroot amaranth were grown and, on Day 18 after the treatment, the growth conditions of barnyard grass and redroot amaranth were observed and examined. The rates of reduction in the plant height and the number of leaves relative to an untreated area were each calculated, and the herbicidal effect was determined as a value obtained by adding the thus calculated rates of reduction and dividing this value by 2 for evaluation of the degree of the herbicidal effect. For example, the herbicidal effect is 90% when the plant height was decreased by 90% and the number of leaves was reduced from 10 to 1, while the herbicidal effect is 75% when the plant height was decreased by 70% and the number of leaves was reduced from 5 to 1. It is noted here that, in Table 1, each value of the herbicidal effect represents an average value of two herbicidal effect evaluation tests.

[2] = test system: redroot amaranth (Amaranthus retroflexus); assay: Herbicidal effect evaluation test on weeds by soil treatment (redroot amaranth); conditions: Day 18 after treatment (4 L)
Protocol: as §1

soybean (Glycine max) = assay: Evaluation test of crop injury to soybean by soil treatment; conditions: 15-mm rainfall
Protocol: In a greenhouse having an average temperature of 25° C. (highest: 30° C., lowest: 25° C.), field soil (sandy loam) was filled in a plastic pot of 11 cm in length, width and depth, and a single seed of soybean (Glycine max) was sowed and covered with the same soil at a thickness of 2 cm. […] On the day of this chemical treatment, a total of 15-mm rainfall was artificially applied in 30 minutes using an artificial rain maker. Thereafter, the soybean was grown and, on Day 15 and Day 39 after the treatment or on Day 13 and Day 26 after the treatment, the growth conditions of the soybean were observed and examined in terms of the plant height and the number of leaves. The rates of reduction in the plant height and the number of leaves relative to an untreated area were each determined, and the thus determined rates of reduction were added and then divided by 2 to calculate the growth inhibition rate for evaluation of the degree of crop injury. […] It is noted here that, in Tables 2 to 5, each growth inhibition rate represents an average value of two crop injury evaluation tests. […] The values observed in the test each indicated an effect lower than the expected value calculated by the following Colby formula at a preferable dosage (see S. R. Colby, Weeds 15(1967), pp. 20-22). Colby's formula defines the expected value (E) as follows for the use of a combination of two chemical agents: (E)=X+Y−XY/100 wherein X represents the growth inhibition rate of an agent a at a concentration of x, and Y represents the growth inhibition rate of an agent b at a concentration of y.

[3] = active component 25 g/ha (saflufenacil)
[4] = active component 50 g/ha (saflufenacil)
[5] = active component 160 g/ha (sulfentrazone)
[6] = active component 320 g/ha (sulfentrazone)
[7] = active component 70 g/ha (flumioxazin)
[8] = active component 140 g/ha (flumioxazin)

Structure (SMILES): CC(C)N(C)S(=O)(=O)NC(=O)c1cc(-n2c(=O)cc(C(F)(F)F)n(C)c2=O)c(F)cc1Cl [Saflufenacil, saflufenacil]
- Herbicidal effect, barnyard grass [1, 3]: 15%
- Herbicidal effect, barnyard grass [1, 4]: 65%
- Herbicidal effect, redroot amaranth [2, 3]: 100%
- Herbicidal effect, redroot amaranth [2, 4]: 100%
- Soybean growth inhibition rate (soybean (Glycine max); Table 4, 25 g/ha (saflufenacil), Day 13 after treatment): 20%
- Soybean growth inhibition rate (soybean (Glycine max); Table 4, 25 g/ha (saflufenacil), Day 26 after treatment): 30%
- Soybean growth inhibition rate (soybean (Glycine max); Table 5, 50 g/ha (saflufenacil), Day 13 after treatment): 30%
- Soybean growth inhibition rate (soybean (Glycine max); Table 5, 50 g/ha (saflufenacil), Day 26 after treatment): 30%

Structure (SMILES): Cc1nn(-c2cc(NS(C)(=O)=O)c(Cl)cc2Cl)c(=O)n1C(F)F [Sulfentrazone, sulfentrazone]
- Herbicidal effect, barnyard grass [1, 5]: 100%
- Herbicidal effect, barnyard grass [1, 6]: 100%
- Herbicidal effect, redroot amaranth [2, 5]: 100%
- Herbicidal effect, redroot amaranth [2, 6]: 100%

Structure (SMILES): C#CCN1C(=O)COc2cc(F)c(N3C(=O)C4=C(CCCC4)C3=O)cc21 [Flumioxazin, flumioxazin]
- Herbicidal effect, barnyard grass [1, 7]: 100%
- Herbicidal effect, barnyard grass [1, 8]: 100%
- Herbicidal effect, redroot amaranth [2, 7]: 100%
- Herbicidal effect, redroot amaranth [2, 8]: 100%
- Soybean growth inhibition rate (soybean (Glycine max); Table 2, 70 g/ha (flumioxazin), Day 15 after treatment): 15%
- Soybean growth inhibition rate (soybean (Glycine max); Table 2, 70 g/ha (flumioxazin), Day 39 after treatment): 5%
- Soybean growth inhibition rate (soybean (Glycine max); Table 3, 140 g/ha (flumioxazin), Day 15 after treatment): 25%
- Soybean growth inhibition rate (soybean (Glycine max); Table 3, 140 g/ha (flumioxazin), Day 39 after treatment): 10%
- Soybean growth inhibition rate (soybean (Glycine max); Table 4, 70 g/ha (flumioxazin), Day 13 after treatment): 8%
- Soybean growth inhibition rate (soybean (Glycine max); Table 4, 70 g/ha (flumioxazin), Day 26 after treatment): 10%
